This is an account of results in patent EP0351214A1, “Anti-inflammatory aryl derivatives” (THE WELLCOME FOUNDATION LIMITED, priority 1988, dated 1990).

SMILES strings stand for the structures.

For one test, the target named is T1, cyclo-oxygenase (CO) (Homo sapiens, UniProt P23219).
T1 construct: The leukocytes were homogenised and 5µM arachidonic acid added; from tissue; host or cells: homogenised leukocytes from blood of volunteers
Put plainly: In vitro inhibition of cyclo-oxygenase (CO) in homogenised leukocytes, radioimmunoassay for thromboxane B2. The format is biochemical. The conditions noted are these: homogenised leukocytes from blood of normal aspirin-free volunteers; 5µM arachidonic acid, 37°C, 5 minutes; thromboxane B₂ by radioimmunoassay; read-out: IC₅₀(µM) activity CO. The method, then: (§1) In vitro inhibition of 5-lipoxygenase (5-LO) and cyclo-oxygenase (CO)
(§2) Blood from normal aspirin-free volunteers was centrifuged to separate leukocytes from red cells and platelets. The leukocytes were homogenised and 5µM arachidonic acid added, followed by incubation at 37 °C for 5 minutes. The reaction was stopped by boiling and radioimmunoassays conducted for leucotriene B₄ and thromboxane B₂, products derived from 5-lipoxygenase and cyclo-oxygenase respectively. Results were calculated as IC₅₀(µM) activity against each enzyme.

In the next test the target is T2, 5-lipoxygenase (5-LO) (Homo sapiens, UniProt P09917).
T2 construct: The leukocytes were homogenised and 5µM arachidonic acid added; from tissue; host or cells: homogenised leukocytes from blood of volunteers
T2 sequence (P09917 1-674): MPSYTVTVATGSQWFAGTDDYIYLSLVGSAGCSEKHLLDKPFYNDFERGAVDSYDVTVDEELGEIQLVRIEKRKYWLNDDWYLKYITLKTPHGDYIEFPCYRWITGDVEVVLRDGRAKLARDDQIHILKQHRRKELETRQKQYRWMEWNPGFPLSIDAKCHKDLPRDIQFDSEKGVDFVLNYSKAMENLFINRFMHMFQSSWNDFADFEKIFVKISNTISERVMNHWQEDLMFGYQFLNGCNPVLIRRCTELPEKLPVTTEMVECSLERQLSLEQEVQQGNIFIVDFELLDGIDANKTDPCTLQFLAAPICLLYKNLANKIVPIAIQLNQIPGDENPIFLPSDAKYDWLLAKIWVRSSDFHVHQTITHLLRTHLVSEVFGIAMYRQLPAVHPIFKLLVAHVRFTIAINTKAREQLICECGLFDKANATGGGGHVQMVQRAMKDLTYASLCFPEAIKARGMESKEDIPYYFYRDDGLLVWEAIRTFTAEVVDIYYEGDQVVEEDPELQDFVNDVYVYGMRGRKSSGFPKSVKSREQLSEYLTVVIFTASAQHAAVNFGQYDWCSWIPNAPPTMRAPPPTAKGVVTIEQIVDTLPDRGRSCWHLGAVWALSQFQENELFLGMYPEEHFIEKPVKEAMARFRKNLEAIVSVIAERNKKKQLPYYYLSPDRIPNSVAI
Nature of the test: In vitro inhibition of 5-lipoxygenase (5-LO) in homogenised leukocytes, radioimmunoassay for leucotriene B4. The note with it: homogenised leukocytes from blood of normal aspirin-free volunteers; 5µM arachidonic acid, 37°C, 5 minutes; leucotriene B₄ by radioimmunoassay; read-out: IC₅₀(µM) activity LO. The format is biochemical. How it is done: as §1, §2

T1 sequence (P23219 24-599): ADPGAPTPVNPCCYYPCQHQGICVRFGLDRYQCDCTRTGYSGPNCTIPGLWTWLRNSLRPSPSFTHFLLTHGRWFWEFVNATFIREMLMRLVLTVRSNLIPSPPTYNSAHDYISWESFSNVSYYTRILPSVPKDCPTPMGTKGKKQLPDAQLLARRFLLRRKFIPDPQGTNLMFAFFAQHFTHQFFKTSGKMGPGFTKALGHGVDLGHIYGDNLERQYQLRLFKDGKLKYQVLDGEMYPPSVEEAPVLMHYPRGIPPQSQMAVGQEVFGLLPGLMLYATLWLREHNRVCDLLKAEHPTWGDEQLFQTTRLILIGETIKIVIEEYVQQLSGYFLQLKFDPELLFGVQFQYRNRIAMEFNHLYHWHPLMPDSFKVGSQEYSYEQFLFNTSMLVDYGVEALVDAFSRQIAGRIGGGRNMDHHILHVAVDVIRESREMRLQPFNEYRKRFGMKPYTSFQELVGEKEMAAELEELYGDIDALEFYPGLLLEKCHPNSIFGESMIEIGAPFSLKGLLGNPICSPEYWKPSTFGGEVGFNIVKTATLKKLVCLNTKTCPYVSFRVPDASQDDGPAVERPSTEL

In the case of `CC(=O)N(O)[C@@H](C)/C=C/c1cccc(Oc2ccc(F)cc2)c1` [Synthetic Example, (E)-N-{1(S)-methyl-3-[3-(4-fluorophenoxy)phenyl]prop-2-en-1-yl}acetohydroxamic acid], the values for the IC50 at cyclo-oxygenase (CO) and on 5-lipoxygenase (5-LO) were 3 µM and 0.15 µM, respectively.
